We go through 25 compounds from patent publication US7868026B2, “Therapeutic compounds” (Pfizer Inc., priority 2005, dated 2011).

What all share (type): biochemical
Experiment [1] addresses T1, CYP3A4 (Homo sapiens, UniProt P08684). Description: Determination of IC50 against CYP3A4 by measurement of inhibition of midazolam metabolism (human liver microsomes, 1-hydroxymidazolam by LC-MS/MS). Conditions: 2 μM midazolam, 0.1 mg/mL human liver microsomes. Also on record: 0.1 mg/mL human liver microsomes. Summed up:
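Human liver microsomes (0.1 mg/mL) incubated 8 min with 2 μM midazolam and 1 mM NADPH in 100 mM potassium phosphate, pH 7.4. 1-Hydroxymidazolam quantified by LC-MS/MS (MRM) as peak area ratio to internal standard against a metabolite standard curve.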
On the technique in general: Liver microsomes are vesicles of endoplasmic reticulum, rich in cytochrome P450 enzymes.

In experiment [2] the target is T1, CYP3A4. The experiment in a line: Determination of compound Kiapp against recombinant CYP3A4 enzyme (BFC fluorescent substrate). The method, boiled down: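 Kiapp derived from initial velocities over the first 5 min of BFC (5 uM) oxidation, using Morrison's tight-binding equation for non-partial and Szedlacsek's for partial inhibitors. Inhibitor first pre-incubated ≥30 min with CYP3A4 (5.5 or 8 nM, ±b5) in pH 7.0 phosphate/TCEP/2% DMF at room temperature; 200 uM NADPH initiated.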

Experiment [3] concerns the target T1, CYP3A4. Description: Determination of IC50 against CYP3A4 by measurement of inhibition of testosterone metabolism (human liver microsomes, 6-β-OH-testosterone by LC-MS/MS). Also on record: 0.1 mg/mL human liver microsomes. Conditions: read-out: IC50 (Testo.). Summed up:
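6-β-OH-testosterone formation was read by LC-MS/MS (MRM, internal standard, standard curve) after eight minutes. Reaction contained testosterone 25 μM, NADPH 1 mM and microsomal protein 0.1 mg/mL in pH 7.4 potassium phosphate (100 mM).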

The mark [4] stands for this setting: Baculo. enzyme preparation, read-out: Kiapp (BFC, Baculo.).
Setting [5] is: Super. enzyme preparation, read-out: Kiapp (BFC, Super.).

Read-outs that look alike come from different tables or passages of the source. Where only a bound is given, the exact number is not on record here.

T1 sequence (P08684 whole entry): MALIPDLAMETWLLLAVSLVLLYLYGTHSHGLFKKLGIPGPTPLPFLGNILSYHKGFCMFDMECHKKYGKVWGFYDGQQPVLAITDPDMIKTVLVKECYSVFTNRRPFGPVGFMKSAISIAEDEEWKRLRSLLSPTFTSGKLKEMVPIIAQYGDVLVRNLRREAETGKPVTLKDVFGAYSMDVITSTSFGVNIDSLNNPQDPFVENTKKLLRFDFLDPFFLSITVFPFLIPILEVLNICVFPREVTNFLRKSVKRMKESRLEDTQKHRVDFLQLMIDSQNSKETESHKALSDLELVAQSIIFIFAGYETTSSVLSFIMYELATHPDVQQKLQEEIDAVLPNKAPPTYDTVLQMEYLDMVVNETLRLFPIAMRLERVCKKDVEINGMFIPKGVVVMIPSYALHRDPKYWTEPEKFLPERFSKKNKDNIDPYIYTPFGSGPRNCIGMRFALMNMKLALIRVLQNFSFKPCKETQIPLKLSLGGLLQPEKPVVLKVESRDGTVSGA

Broadly, the IC50 is the concentration needed to halve the response being measured. Take `COc1cncc(NS(=O)(=O)c2ccc(OC3CCNCC3)cc2C(=O)NCc2ccc(F)cc2)c1` [Example 264, N-(4-fluorobenzyl)-2-{[(5-methoxypyridin-3-yl)amino]sulfonyl}-5-(piperidin-4-yloxy)benzamide]: the figures for the half-inhibitory concentration (IC50) in experiment [1] and in experiment [3] were 26 nM and 58 nM, respectively. Besides, the Ki in experiment [2] (setting [4]) was 34.7 nM; in experiment [2] (setting [5]), 9.88 nM.

For `COc1cncc(NS(=O)(=O)c2ccc(Cl)cc2C(=O)N(C)C(C)C)c1` [Example 309, 5-chloro-N-isopropyl-2-{[(5-methoxypyridin-3-yl)amino]sulfonyl}-N-methylbenzamide], the IC50 was 149 nM in experiment [1] and 427 nM in experiment [3]. Moreover, the results for the Ki in experiment [2] (setting [4]) and in experiment [2] (setting [5]) were 808 nM and 145 nM, respectively.

On to `Cc1cncc(NS(=O)(=O)c2ccccc2C(=O)NCC2CCCC2)c1` [Example 334, N-(cyclopentylmethyl)-2-{[(5-methylpyridin-3-yl)amino]sulfonyl}benzamide], for which the IC50 is 12 nM in experiment [1] and 17 nM in experiment [3]. The Ki is 82.6 nM in experiment [2] (setting [4]) and 9.1 nM in experiment [2] (setting [5]).

`COCCN(C)C(=O)c1ccccc1S(=O)(=O)Nc1cnccc1OC` [Example 161, N-(2-methoxyethyl)-2-{[(4-methoxypyridin-3-yl)amino]sulfonyl}-N-methylbenzamide]: the IC50 in experiment [1] worked out at 308 nM; in experiment [3], 371 nM. Further, the results for the Ki in experiment [2] (setting [4]) and in experiment [2] (setting [5]) were over 1000 nM and 418 nM, respectively.

Regarding `CN1CCN(C(=O)c2ccccc2S(=O)(=O)Nc2cccnc2)CC1` [Example 35, 2-[(4-methylpiperazin-1-yl)carbonyl]-N-pyridin-3-ylbenzenesulfonamide], the concentration for half-maximal inhibition (IC50) in experiment [1] and in experiment [3] was over 750 nM throughout. In experiment [2] (setting [4]), the Ki was over 1000 nM.

On to `CC(C)CCNC(=O)c1ccccc1S(=O)(=O)Nc1cccnc1` [Example 42, N-(3-methylbutyl)-2-[(pyridin-3-ylamino)sulfonyl]benzamide], for which the IC50 was determined as 35.9 nM in experiment [1] and 51.5 nM in experiment [3]. Also, the values for the Ki in experiment [2] (setting [4]) and in experiment [2] (setting [5]) were 378 nM and 22.5 nM, respectively.

With `COc1cncc(NS(=O)(=O)c2ccc(OCCN3CCOCC3)cc2C(=O)NCc2ccc(F)cc2)c1` [Example 265, N-(4-fluorobenzyl)-2-{[(5-methoxypyridin-3-yl)amino]sulfonyl}-5-(2-morpholin-4-ylethoxy)benzamide], the concentration for half-maximal inhibition (IC50) in experiment [1] turned out to be 23 nM; in experiment [3], 41 nM. In addition, the Ki in experiment [2] (setting [4]) was 29.6 nM; in experiment [2] (setting [5]), 12.6 nM.

As for `CCCCN(C)C(=O)c1ccccc1S(=O)(=O)Nc1cncc(OC)c1` [Example 353, N-butyl-2-{[(5-methoxypyridin-3-yl)amino]sulfonyl}-N-methylbenzamide], the results for the half-inhibitory concentration (IC50) in experiment [1] and in experiment [3] were 18 nM and 31 nM, respectively. Moreover, the figures for the Ki in experiment [2] (setting [4]) and in experiment [2] (setting [5]) were 28.1 nM and 11.5 nM, respectively.

Take `COc1ccncc1NS(=O)(=O)c1ccccc1C(=O)NC(C)(C)C` [Example 254, N-(tert-butyl)-2-{[(4-methoxypyridin-3-yl)amino]sulfonyl}benzamide]: the values for the IC50 in experiment [1] and in experiment [3] were 40 nM and 120 nM, respectively. The Ki in experiment [2] (setting [4]) came to 284 nM; in experiment [2] (setting [5]), 122 nM.

Take `COc1cncc(NS(=O)(=O)c2ccccc2C(=O)NC2CCC(C)CC2)c1` (centres unmarked) [Example 149, 2-{[(5-methoxypyridin-3-yl)amino]sulfonyl}-N-(4-methylcyclohexyl)benzamide]: the results for the IC50 in experiment [1] and in experiment [3] were 12 nM and 21 nM, respectively. In addition, the Ki was 208 nM in experiment [2] (setting [4]) and 12.3 nM in experiment [2] (setting [5]).

As to `Cc1cncc(NS(=O)(=O)c2ccccc2C(=O)NCc2ccc(F)c(C(F)(F)F)c2)c1` [Example 316, N-[4-fluoro-3-(trifluoromethyl)benzyl]-2-{[(5-methylpyridin-3-yl)amino]sulfonyl}benzamide], the half-inhibitory concentration (IC50) in experiment [1] is 17 nM; in experiment [3], 27 nM. The Ki in experiment [2] (setting [4]) amounted to 8.4 nM; in experiment [2] (setting [5]), 1.2 nM.

As to `COc1cncc(NS(=O)(=O)c2ccccc2C(=O)NCc2c(F)cccc2Cl)c1` [Example 213, N-(2-chloro-6-fluorobenzyl)-2-{[(5-methoxypyridin-3-yl)amino]sulfonyl}benzamide], the IC50 was under 3 nM in experiment [1] and 13 nM in experiment [3]. Moreover, the Ki in experiment [2] (setting [4]) amounted to 27.2 nM; in experiment [2] (setting [5]) it was 9.8 nM.

Take `COc1cncc(NS(=O)(=O)c2ccccc2C(=O)NCc2ccccc2OC)c1` [Example 186, N-(2-methoxybenzyl)-2-{[(5-methoxypyridin-3-yl)amino]sulfonyl}benzamide]: the concentration for half-maximal inhibition (IC50) stood at 6 nM in experiment [1] and 7 nM in experiment [3]. Further, the Ki is 171 nM in experiment [2] (setting [4]) and 9.7 nM in experiment [2] (setting [5]).

With `COc1cncc(NS(=O)(=O)c2ccccc2C(=O)NCCOc2ccccc2)c1` [Example 238, 2-{[(5-methoxypyridin-3-yl)amino]sulfonyl}-N-(2-phenoxyethyl)benzamide], the half-maximal inhibitory concentration (IC50) in experiment [1] stood at 17 nM; in experiment [3] it was 31 nM. Also, the results for the Ki in experiment [2] (setting [4]) and in experiment [2] (setting [5]) were 230 nM and 18 nM, respectively.

With `CCOC(=O)N1CCN(C(=O)c2ccccc2S(=O)(=O)Nc2cccnc2)CC1` [Example 36, ethyl 4-{2-[(pyridin-3-ylamino)sulfonyl]benzoyl} piperazine-1-carboxylate], the IC50 in experiment [1] and in experiment [3] was over 750 nM each time. The Ki in experiment [2] (setting [4]) was over 1000 nM.

Consider `COCCN(C(=O)c1ccccc1S(=O)(=O)Nc1cncc(OC)c1)C(C)C` [Example 244, N-isopropyl-N-(2-methoxyethyl)-2-{[(5-methoxypyridin-3-yl)amino]sulfonyl}benzamide], for which the IC50 in experiment [1] is under 16 nM; in experiment [3] it was 52 nM. Also, the figures for the Ki in experiment [2] (setting [4]) and in experiment [2] (setting [5]) were 45.6 nM and 26.8 nM, respectively.

For the compound `COc1cncc(NS(=O)(=O)c2ccccc2C(=O)NCc2cccc(Cl)c2C)c1` [Example 206, N-(3-chloro-2-methylbenzyl)-2-{[(5-methoxypyridin-3-yl)amino]sulfonyl}benzamide], the IC50 was under 3 nM in experiment [1] and 6 nM in experiment [3]. The Ki in experiment [2] (setting [4]) turned out to be 3.6 nM; in experiment [2] (setting [5]) it was 2.9 nM.

Take `CCCCCN(C)C(=O)c1ccccc1S(=O)(=O)Nc1cncc(C)c1` [Example 341, N-methyl-2-{[(5-methylpyridin-3-yl)amino]sulfonyl}-N-pentylbenzamide]: the IC50 in experiment [1] is 22 nM; in experiment [3], 26 nM. For the same compound, the Ki in experiment [2] (setting [4]) was 36.6 nM; in experiment [2] (setting [5]), 13.1 nM.

For `COc1cncc(NS(=O)(=O)c2ccccc2C(=O)NCc2c(F)cccc2F)c1` [Example 207, N-(2,6-difluorobenzyl)-2-{[(5-methoxypyridin-3-yl)amino]sulfonyl}benzamide], the half-maximal inhibitory concentration (IC50) in experiment [1] was 5 nM; in experiment [3], 24 nM. Besides, the Ki in experiment [2] (setting [4]) came out at 105 nM; in experiment [2] (setting [5]), 19.1 nM.

As to `COc1cncc(NS(=O)(=O)c2ccccc2C(=O)N(C)Cc2cccc(F)c2)c1` [Example 346, N-(3-fluorobenzyl)-2-{[(5-methoxypyridin-3-yl)amino]sulfonyl}-N-methylbenzamide], the IC50 was 19 nM in experiment [1] and 11 nM in experiment [3]. The Ki came to 52 nM in experiment [2] (setting [4]) and 13.2 nM in experiment [2] (setting [5]).

As to `CCOc1cncc(NS(=O)(=O)c2ccccc2C(=O)NCc2ccc(F)c(C(F)(F)F)c2)c1` [Example 288, 2-{[(5-ethoxypyridin-3-yl)amino]sulfonyl}-N-[4-fluoro-3-(trifluoromethyl)benzyl]benzamide], the IC50 in experiment [1] came out at 12 nM; in experiment [3], 18 nM. For the same compound, the Ki amounted to 2.2 nM in experiment [2] (setting [4]) and 3.08 nM in experiment [2] (setting [5]).

Take `Cc1cc(CNC(=O)c2ccccc2S(=O)(=O)Nc2cnccc2C)ccc1F` [Example 167, N-(4-fluoro-3-methylbenzyl)-2-{[(4-methylpyridin-3-yl)amino]sulfonyl}benzamide]: the figures for the IC50 in experiment [1] and in experiment [3] were 9 nM and 16 nM, respectively. Also, the Ki was determined as 159 nM in experiment [2] (setting [4]) and 17.4 nM in experiment [2] (setting [5]).

In the case of `COc1cncc(NS(=O)(=O)c2ccccc2C(=O)N(C)Cc2ccc(F)c(F)c2)c1` [Example 285, N-(3,4-difluorobenzyl)-2-{[(5-methoxypyridin-3-yl)amino]sulfonyl}-N-methylbenzamide], the IC50 came out at 19 nM in experiment [1] and 28 nM in experiment [3]. In addition, the figures for the Ki in experiment [2] (setting [4]) and in experiment [2] (setting [5]) were 26 nM and 7.24 nM, respectively.

`CCC(C)CNC(=O)c1ccccc1S(=O)(=O)Nc1cncc(OC)c1` (centres unmarked) [Example 208, 2-{[(5-methoxypyridin-3-yl)amino]sulfonyl}-N-(2-methylbutyl)benzamide]: the IC50 in experiment [1] amounted to 9.5 nM; in experiment [3], 19 nM. Further, the Ki in experiment [2] (setting [4]) worked out at 57.3 nM; in experiment [2] (setting [5]) it was 16.1 nM.

As to `CC(C)(NC(=O)c1ccccc1S(=O)(=O)Nc1cccnc1)C1CC1` [Example 4, N-(1-cyclopropyl-1-methylethyl)-2-[(pyridin-3-ylamino)sulfonyl]benzamide], the IC50 is 52 nM in experiment [1] and 96 nM in experiment [3]. Besides, the Ki in experiment [2] (setting [4]) came out at 167 nM; in experiment [2] (setting [5]) it was 43.6 nM.
